Our source for the IC50 values is patent US11773071B2, “Benzothiazepine compounds and their use as bile acid modulators” (Albireo AB, priority 2019, dated 2023).

In one assay the target is T1, Human LBAT (Homo sapiens, UniProt Q14973).
T1 construct: expressed in transfected cells; Geneticin-selected
T1 sequence (Q14973 1-349): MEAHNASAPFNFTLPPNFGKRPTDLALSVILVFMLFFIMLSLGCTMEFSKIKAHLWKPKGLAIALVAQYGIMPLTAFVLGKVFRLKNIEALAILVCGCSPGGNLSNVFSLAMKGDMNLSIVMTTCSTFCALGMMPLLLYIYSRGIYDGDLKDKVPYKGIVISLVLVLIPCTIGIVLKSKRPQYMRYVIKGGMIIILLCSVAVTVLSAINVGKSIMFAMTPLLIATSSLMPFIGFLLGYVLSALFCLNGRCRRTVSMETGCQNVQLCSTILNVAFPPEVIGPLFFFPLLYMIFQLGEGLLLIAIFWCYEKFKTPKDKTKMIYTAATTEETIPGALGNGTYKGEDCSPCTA
The assay is described as follows: LBAT (h/m) assay, human LBAT-overexpressing cells, 3H-taurocholic acid uptake. To be noted: 0.3 μM 3H-taurocholic acid and 7.5 μM cold taurocholic acid, 20 minutes, read-out: hLBAT IC50. The assay is classed as cell-based. As for the experimental part: LBAT (h/m) Assay Protocol
20,000 cells (Human or Mouse LBAT-overexpressing cells) were seeded in 96-wells plate (Corning CLS3809) in 100 μL MEM-alpha medium (Gibco 12571-063) supplemented with 10% FBS (Gibco 10438026) containing Geneticin (Gibco 10131-027) (1 mg/mL) and incubated at 37° C. in 5% CO2 for 24 hours. After incubation, media was decanted from the wells and cells were washed two times with 300 μL of basal MEM-alpha medium (FBS-free). After decanting basal MEM-alpha medium each time, plates were tapped against paper towel to ensure maximum removal of residual media.
For human LBAT, incubation mix was prepared by adding test inhibitor dilutions (3-fold serial dilution in DMSO (Sigma D2650), 10 points) in MEM-alpha (without FBS) containing 0.3 μM 3H-taurocholic acid (ARC ART-1368) and 7.5 μM cold taurocholic acid (Sigma T4009) (maintaining 0.2% final DMSO concentration). For mouse LBAT, incubation mix was prepared by adding test inhibitor dilutions (3-fold serial dilution in DMSO, 10 points) in MEM-alpha (without FBS) containing 0.3 μM 3H-taurocholic acid and 25 μM cold taurocholic acid maintaining 0.2% final DMSO concentration). 50 μL of incubation mix containing test inhibitors was then added to the wells (in duplicate) and the plates were incubated for 20 minutes in a CO2 incubator at 37° C. After incubation, the reaction was stopped by keeping the plates on ice water mix for 2-3 minutes and then the incubation mix was aspirated completely from the wells. The wells were washed two times with 250 μL of chilled unlabelled 1 mM taurocholic acid dissolved in HEPES (Gibco 15630080)-buffered (10 mM) HBSS (Gibco 14175079) (pH 7.4). The plates were tapped against a paper towel after every wash to ensure maximum removal of blocking buffer. 100 μL of MicroScint-20 (PerkinElmer 6013621) was added to the wells and kept overnight at room temperature before reading the plates in TopCount NXT™ Microplate Scintillation and Luminescence Counter from PerkinElmer under 3H Test protocol (set at 120 seconds reading time per well, with normal plate orientation).
(§1) Preparation of Test Compound Dilutions
(§2) All test compounds were provided in powder form at room temperature. 10 mM DMSO stocks of the test compounds were prepared, aliquoted and stored at −20° C. From the 10 mM DMSO stock of the compounds, a 3-fold serial dilution in DMSO was prepared to get a total of 10 dilutions of the test compounds. 0.5 μL of this dilution in DMSO was added to 250 μL of FBS-free basal media containing 3H-taurocholic acid and cold taurocholic acid to prepare the incubation mixture.

In the next assay the target is T2, Human IBAT (Homo sapiens, UniProt Q12908).
T2 construct: expressed in transfected cells; Puromycin-selected
T2 sequence (Q12908 1-348): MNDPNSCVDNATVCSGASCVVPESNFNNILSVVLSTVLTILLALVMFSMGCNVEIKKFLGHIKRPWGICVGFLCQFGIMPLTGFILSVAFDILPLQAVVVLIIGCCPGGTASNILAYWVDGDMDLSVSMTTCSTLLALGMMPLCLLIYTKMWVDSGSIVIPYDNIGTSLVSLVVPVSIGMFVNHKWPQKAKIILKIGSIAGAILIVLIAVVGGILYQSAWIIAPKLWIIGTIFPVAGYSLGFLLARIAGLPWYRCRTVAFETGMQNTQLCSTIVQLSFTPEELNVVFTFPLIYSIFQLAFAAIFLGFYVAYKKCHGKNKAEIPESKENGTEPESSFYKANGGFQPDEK
The assay is described as follows: IBAT (h/m) assay, human IBAT-overexpressing cells, 3H-taurocholic acid uptake. The format is cell-based. To be noted: 0.25 μM 3H-taurocholic acid and 5 μM cold taurocholic acid, 20 minutes, read-out: hIBAT IC50. The procedure: IBAT (h/m) Assay Protocol
10,000 cells (Human or Mouse IBAT-overexpressing cells) were seeded in 96-wells plate (Corning CLS3809) in 200 μL MEM-alpha medium (Gibco 12571-063) supplemented with 10% FBS (Gibco 10438026) containing Puromycin (Gibco A1113803) (10 μg/mL) and incubated at 37° C. in 5% CO2 for 48 hours. After incubation, media was decanted from the wells and cells were washed two times with 300 μL of basal MEM-alpha medium (FBS-free). After decanting basal MEM-alpha medium each time, plates were tapped against paper towel to ensure maximum removal of residual media. Test inhibitor dilutions (highest test concentration being 10 μM, 3-fold serial dilution, 10 points) prepared in DMSO (Sigma D2650) were added in incubation mix (maintaining 0.2% final DMSO concentration) containing 0.25 μM 3H-taurocholic acid (ARC ART-1368) and 5 μM of cold taurocholic acid (Sigma T4009). 50 μL of incubation mix containing test inhibitors was then added to the wells (in duplicate) and the plates were incubated for 20 minutes in a CO2 incubator at 37° C. After incubation, the reaction was stopped by keeping the plates on ice water mix for 2-3 minutes and then the incubation mix was aspirated completely from the wells. The wells were washed two times with 250 μL of chilled unlabelled 1 mM taurocholic acid dissolved in HEPES (Gibco 15630080)-buffered (10 mM) HBSS (Gibco 14175079) (pH 7.4). The plates were tapped against a paper towel after every wash to ensure maximum removal of blocking buffer.
100 μL of MicroScint-20 (PerkinElmer 6013621) was added to the wells and kept overnight at room temperature before reading the plates in TopCount NXT™ Microplate Scintillation and Luminescence Counter from PerkinElmer under 3H Test protocol (set at 120 seconds reading time per well).
as §1, §2

As for `CCCCC1(CCCC)CN(c2ccc(F)cc2)c2cc(SC)c(OCCC(=O)O)cc2S(=O)(=O)C1` [Example 26, 3-((3,3-dibutyl-5-(4-fluorophenyl)-7-(methylthio)-1,1-dioxido-2,3,4,5-tetrahydro-1,5-benzothiazepin-8-yl)oxy)propanoic acid], the half-maximal inhibitory concentration (IC50) (usually the concentration that inhibits the measured activity by half) is 1.54 µM at Human LBAT and 0.01 µM at Human IBAT.
Consider `CCCCC1(C)CN(c2ccccc2)c2cc(SC)c(OCCC(=O)O)cc2S(=O)(=O)C1` (racemic) [Example 22, 3-((3-butyl-3-methyl-7-(methylthio)-1,1-dioxido-5-phenyl-2,3,4,5-tetrahydro-1,5-benzothiazepin-8-yl)oxy)propanoic acid], for which the IC50 on Human LBAT stood at 0.543 µM; on Human IBAT it was 0.01 µM.
Regarding `CCCCC1(C)CN(c2ccccc2)c2cc(SC)c(OCC(C)(O)C(=O)O)cc2S(=O)(=O)C1` (single isomer, unassigned) [33, diastereomer 2], the IC50 worked out at 1.41 µM at Human LBAT and 0.045 µM at Human IBAT.
The like results for `CCCCC1(CC)CN(c2ccc(F)cc2)c2cc(SC)c(OCC(O)C(=O)O)cc2S(=O)(=O)C1` (single isomer, unassigned) [42, diastereomer 4] were, in that order, 0.689 µM and 0.001 µM.
Take `CCCCC1(CC)CN(c2ccccc2)c2cc(SC)c(OCCC(=O)O)cc2S(=O)(=O)C1` (single isomer, unassigned) [Example 14, 3-((3-butyl-3-ethyl-7-(methylthio)-1,1-dioxido-5-phenyl-2,3,4,5-tetrahydro-1,5-benzothiazepin-8-yl)oxy)propanoic acid]: the IC50 on Human LBAT was 0.764 µM; on Human IBAT, 0.058 µM.
With `CCCCC1(CC)CN(c2ccccc2)c2cc(Cl)c(OC(C)CC(=O)O)cc2S(=O)(=O)C1` (single isomer, unassigned) [30, diastereomers 3 and 4], the figures for the IC50 at Human LBAT and on Human IBAT were 0.818 µM and 0.263 µM, respectively.
The like results for `CCCCC1(CC)CN(c2ccccc2)c2cc(SC)c(OCCC(=O)O)cc2S(=O)(=O)C1` (racemic) [Example 12, 3-((3-Butyl-3-ethyl-7-(methylthio)-1,1-dioxido-5-phenyl-2,3,4,5-tetrahydro-1,5-benzothiazepin-8-yl)oxy)propanoic acid] were, in that order, 0.669 µM and 0.004 µM.
With `CCCCC1(CC)CN(c2ccccc2)c2cc(Cl)c(OC(C)CC(=O)O)cc2S(=O)(=O)C1` (single isomer, unassigned) [30, diastereomer 2], the results for the concentration for half-maximal inhibition (IC50) at Human LBAT and on Human IBAT were 0.322 µM and 0.052 µM, respectively.
For the compound `CCCCC1(CC)CN(c2ccc(F)cc2)c2cc(SC)c(OCCC(=O)O)cc2S(=O)(=O)C1` (racemic) [Example 37, 3-((3-butyl-3-ethyl-5-(4-fluorophenyl)-7-(methylthio)-1,1-dioxido-2,3,4,5-tetrahydro-1,5-benzothiazepin-8-yl)oxy)propanoic acid], the IC50 on Human LBAT was found to be 0.297 µM; at Human IBAT it was 0.003 µM.
As to `CCCCC1(CC)CN(c2ccccc2)c2cc(SC)c(OCC(O)C(=O)O)cc2S(=O)(=O)C1` (stereo not shown) [Example 39, 3-((3-butyl-3-ethyl-7-(methylthio)-1,1-dioxido-5-phenyl-2,3,4,5-tetrahydro-1,5-benzothiazepin-8-yl)oxy)-2-hydroxypropanoic acid], the figures for the 50% inhibitory concentration (IC50) on Human LBAT and on Human IBAT were 0.613 µM and 0.004 µM, respectively.
Turning to `CCCCC1(CC)CN(c2ccccc2)c2cc(SC)c(OCC(O)C(=O)O)cc2S(=O)(=O)C1` (single isomer, unassigned) [40, diastereomer 1], the half-maximal inhibitory concentration (IC50) on Human LBAT came to 1.37 µM; at Human IBAT it was 0.241 µM.
